Assay results taken from ChEMBL document CHEMBL1140095, “Design, synthesis, and antibacterial activities of neomycin-lipid conjugates: polycationic lipids with potent gram-positive activity” (2008).
≈ marks a conversion by molar mass, not a printed value.

How the values were obtained:
Streptococcus pneumoniae [1] = experiment: Antibacterial activity against […] Streptococcus pneumoniae ATCC 49619 after 24 hrs by macrobroth dilution method; format: functional; conditions: ATCC 49619, 24 h
Pseudomonas aeruginosa = experiment: Antibacterial activity against Pseudomonas aeruginosa ATCC 27853 after 24 hrs by macrobroth dilution method; format: functional; conditions: ATCC 27853, 24 h
[2] = tested on: Staphylococcus epidermidis; experiment: Antibacterial activity against Staphylococcus epidermidis ATCC 1490 after 24 hrs by macrobroth dilution method; format: functional; conditions: ATCC 1490, 24 h
Staphylococcus aureus [3] = experiment: Antibacterial activity against methicillin-resistant Staphylococcus aureus ATCC 33592 after 24 hrs by macrobroth dilution method; format: functional; conditions: ATCC 33592, 24 h
Escherichia coli [4] = experiment: Antibacterial activity against gentamicin-resistant Escherichia coli ATCC 6174 after 24 hrs by macrobroth dilution method; format: functional; conditions: ATCC 6174, 24 h
Candida albicans = experiment: Antibacterial activity against Candida albicans; format: functional
Escherichia coli [5] = experiment: Antibacterial activity against Escherichia coli ATCC 25922 after 24 hrs by macrobroth dilution method; format: functional; conditions: ATCC 25922, 24 h
Staphylococcus aureus [6] = experiment: Antibacterial activity against Staphylococcus aureus ATCC 29213 after 24 hrs by macrobroth dilution method; format: functional; conditions: ATCC 29213, 24 h
[7] = tested on: Staphylococcus epidermidis; experiment: Antibacterial activity against methicillin-resistant Staphylococcus epidermidis ATCC 14990 after 24 hrs by macrobroth dilution method; format: functional; conditions: ATCC 14990, 24 h
Streptococcus pneumoniae [8] = experiment: Antibacterial activity against Streptococcus pneumoniae ATCC 49619 after 24 hrs by macrobroth dilution method; conditions: ATCC 49619, 24 h
Staphylococcus aureus [9] = experiment: Antibacterial activity against methicillin-susceptible Staphylococcus aureus after 24 hrs by macrobroth dilution method; format: functional
Staphylococcus aureus [10] = experiment: Antibacterial activity against methicillin-resistant Staphylococcus aureus; format: functional
Escherichia coli [11] = experiment: Antibacterial activity against Escherichia coli; format: functional
Staphylococcus aureus [12] = experiment: Antibacterial activity against Staphylococcus aureus; format: functional

SMILES	MIC (Streptococcus pneumoniae [1])	MIC (Pseudomonas aeruginosa)	MIC [2]	MIC (Staphylococcus aureus [3])	MIC (Escherichia coli [4])	MIC (Candida albicans)	MIC (Escherichia coli [5])	MIC (Staphylococcus aureus [6])	MIC [7]	MIC (Streptococcus pneumoniae [8])	MIC (Staphylococcus aureus [9])	MIC (Staphylococcus aureus [10])	MIC (Escherichia coli [11])	MIC (Staphylococcus aureus [12])
NC[C@@H]1O[C@H](O[C@H]2[C@@H](O)[C@H](O[C@@H]3[C@@H](O)[C@H](N)C[C@H](N)[C@H]3O[C@H]3O[C@H](CN)[C@@H](O)[C@H](O)[C@H]3N)O[C@@H]2CNC(=O)CCCc2ccc3ccc4cccc5ccc2c3c45)[C@H](N)[C@@H](O)[C@@H]1O	> 512 µg/mL	256 µg/mL (≈ 290 µM)	2 µg/mL (≈ 2.26 µM)	256 µg/mL (≈ 290 µM)	64 µg/mL (≈ 72.4 µM)	≥ 512 µg/mL	32 µg/mL (≈ 36.2 µM)	16 µg/mL (≈ 18.1 µM)	64 µg/mL (≈ 72.4 µM)					
CCCCCC(=O)NC[C@H]1O[C@@H](O[C@@H]2[C@@H](O)[C@H](N)C[C@H](N)[C@H]2O[C@H]2O[C@H](CN)[C@@H](O)[C@H](O)[C@H]2N)[C@H](O)[C@@H]1O[C@H]1O[C@@H](CN)[C@@H](O)[C@H](O)[C@H]1N		> 512 µg/mL	2 µg/mL (≈ 2.81 µM)	> 512 µg/mL	16 µg/mL (≈ 22.5 µM)	≥ 512 µg/mL	16 µg/mL (≈ 22.5 µM)	16 µg/mL (≈ 22.5 µM)	32 µg/mL (≈ 45 µM)	64 µg/mL (≈ 89.9 µM)				
CCCCCCCCCCCCCCCC(=O)NC[C@H]1O[C@@H](O[C@@H]2[C@@H](O)[C@H](N)C[C@H](N)[C@H]2O[C@H]2O[C@H](CN)[C@@H](O)[C@H](O)[C@H]2N)[C@H](O)[C@@H]1O[C@H]1O[C@@H](CN)[C@@H](O)[C@H](O)[C@H]1N		128 µg/mL (≈ 150 µM)	2 µg/mL (≈ 2.35 µM)	8 µg/mL (≈ 9.39 µM)	64 µg/mL (≈ 75.1 µM)	≥ 512 µg/mL	32 µg/mL (≈ 37.6 µM)	4 µg/mL (≈ 4.69 µM)	2 µg/mL (≈ 2.35 µM)	64 µg/mL (≈ 75.1 µM)				
CCCCCCCCCCCCCCCCCCCC(=O)NC[C@H]1O[C@@H](O[C@@H]2[C@@H](O)[C@H](N)C[C@H](N)[C@H]2O[C@H]2O[C@H](CN)[C@@H](O)[C@H](O)[C@H]2N)[C@H](O)[C@@H]1O[C@H]1O[C@@H](CN)[C@@H](O)[C@H](O)[C@H]1N	64 µg/mL (≈ 70.5 µM)	64 µg/mL (≈ 70.5 µM)	4 µg/mL (≈ 4.4 µM)	8 µg/mL (≈ 8.81 µM)	128 µg/mL (≈ 141 µM)	≥ 512 µg/mL	128 µg/mL (≈ 141 µM)	8 µg/mL (≈ 8.81 µM)	4 µg/mL (≈ 4.4 µM)					
CCCCCCCCCCCC(=O)NC[C@H]1O[C@@H](O[C@@H]2[C@@H](O)[C@H](N)C[C@H](N)[C@H]2O[C@H]2O[C@H](CN)[C@@H](O)[C@H](O)[C@H]2N)[C@H](O)[C@@H]1O[C@H]1O[C@@H](CN)[C@@H](O)[C@H](O)[C@H]1N		256 µg/mL (≈ 322 µM)	4 µg/mL (≈ 5.03 µM)	> 512 µg/mL	64 µg/mL (≈ 80.4 µM)	≥ 512 µg/mL	64 µg/mL (≈ 80.4 µM)	32 µg/mL (≈ 40.2 µM)	8 µg/mL (≈ 10.1 µM)	128 µg/mL (≈ 161 µM)				
C[C@@H](CCC(=O)NC[C@H]1O[C@@H](O[C@@H]2[C@@H](O)[C@H](N)C[C@H](N)[C@H]2O[C@H]2O[C@H](CN)[C@@H](O)[C@H](O)[C@H]2N)[C@H](O)[C@@H]1O[C@H]1O[C@@H](CN)[C@@H](O)[C@H](O)[C@H]1N)[C@@H]1CC[C@H]2[C@@H]3[C@@H](O)C[C@H]4C[C@@H](O)CC[C@@]4(C)[C@H]3C[C@@H](O)[C@]21C (stereo in doubt)	> 256 µg/mL	> 256 µg/mL	8 µg/mL (≈ 7.97 µM)	128 µg/mL (≈ 127 µM)	64 µg/mL (≈ 63.7 µM)	≥ 512 µg/mL	32 µg/mL (≈ 31.9 µM)	16 µg/mL (≈ 15.9 µM)	16 µg/mL (≈ 15.9 µM)					
CCCCCCCCCCCC(=O)O [DODECANOATE]				400 µg/mL (≈ 2000 µM)							400 µg/mL (≈ 2000 µM)			
NC[C@@H]1O[C@H](O[C@H]2[C@@H](O)[C@H](O[C@@H]3[C@@H](O)[C@H](N)C[C@H](N)[C@H]3O[C@H]3O[C@H](CN)[C@@H](O)[C@H](O)[C@H]3N)O[C@@H]2CO)[C@H](N)[C@@H](O)[C@@H]1O [FRAMYCETIN]	64 µg/mL (≈ 104 µM)	512 µg/mL (≈ 833 µM)	1 µg/mL (≈ 1.63 µM)	256 µg/mL (≈ 416 µM)	4 µg/mL (≈ 6.51 µM)	≥ 512 µg/mL	8 µg/mL (≈ 13 µM)	2 µg/mL (≈ 3.25 µM)	0.5 µg/mL (≈ 0.813 µM)					
CCCCCCCCCCCCC/C=C/[C@@H](O)[C@@H](N)CO [SPHINGOSINE]						6 µg/mL (≈ 20 µM)						4 µg/mL (≈ 13.4 µM)	42 µg/mL (≈ 140 µM)	2 µg/mL (≈ 6.68 µM)
